The source of these data is patent publication US10246488B2, “Use of inhibitory peptides for the treatment of inflammatory diseases” (Yeda Research and Development Co. Ltd., priority 2013, dated 2019).

One assay deals with MAPKs. The assay is described as follows: Western blot of stimulation-dependent activation of MAPKs in HeLa cells. The assay is classed as cell-based. Particulars: HeLa cells pre-incubated with peptide, Anisomycin 0.5 μg/ml or TPA 250 nM. How it is done:
HeLa cells were grown to 70% confluence, serum starved and pre-incubated with either new peptide (NP), peptide or scrambled peptide and then either stimulated with Anisomycin (Anis 0.5 μg/ml), TPA (250 nM) or left untreated (NT). Cell extracts were produced and subjected to Western blot analysis with the indicated Abs.
Background: A western blot detects proteins with antibodies after separation by electrophoresis.

Assay [1] addresses T1, interaction of JNK1/2 and p38α/β with Imp7 (Homo sapiens, UniProt O95373).
T1 construct: endogenous in cells; host or cells: HeLa
The assay is described as follows: Co-immunoprecipitation of MAPKs with importins from extracts of treated HeLa cells. Format: cell-based. The following applies: for interaction of p38 with Imp7 (CoIP): HeLa cells pre-incubated with modified peptide 2 hours, anisomycin 0.5 μg/ml 15 min; for Imp7/9 interactions of the MAPKs examined (JNK1/2 and p38α/β), Co-IP: HeLa cells, peptide 10 μM applied prior to stimulation, Anisomycin 0.5 μg/ml. How it is done:
(§1) HeLa cells were grown on slides to 70% confluence, serum starved (0.1% FBS, 16 hrs), and then either incubated with the inhibitory peptide (Peptide, 10 μM) or scrambled peptide (Scr peptide, 10 μM), cells were then treat with Anisomycin (Anis, 0.5 μg/ml) or left untreated (NT). Cells were fixed, and stained with anti JNK1, JNK2, p38α or p38β Abs as indicated, and DAPI to detect nuclei. The slides were visualized using a fluorescent microscope. […] HeLa cells were grown to 70% confluence, serum starved (0.1% FBS, 16 hrs), and then either incubated with the inhibitory peptide (Peptide, 10 μM), scrambled peptide (Scr peptide, 10 μM), or DMSO, followed by treatment with Anisomycin (Anis, 0.5 μg/ml) or mock control (NT). Cell extracts were then subjected to Co-IP with anti JNK1, JNK2, p38α, p38β Abs. The interacting Imp7 was detected by Western blot with the indicated anti Imps Abs. Amount of IPed MAPKs was detected by the anti JNK1, JNK2, p38α and p38β Abs as indicated.
(A) Myristiolated peptide was modified (replacement of 3 residues to alanin) Myr-KPERYQNLSPVGSGA—SEQ ID NO: 9; Myr-KPERYQNLSPVAAAA—SEQ ID NO: 10. (B) Hela cells were pre-incubated with modified peptide (2 hours) then either stimulated with anisomycin (Anis, 0.5 μg/ml, 15 min) or left untreated. Cell extracts were then subjected to CoIP with anti p38a . The interacting Imp7 or IPed p38 were detected by Western blot with indicated Abs.
Co-Immunoprecipitation: HeLa cells were grown to subconfluency, serum-starved (0.1% FBS for 16 h) and then stimulated or treated with other drugs. Cell extracts were produced as previously described and incubated for 2 hours (4° C., with rotation) with A/G-agarose beads (Santa Cruz Biotechnology) pre-linked with specific Abs (1 hrs, 23° C.). The bound A/G beads were washed three times with ice-cold washing buffer. The IPed beads were then resuspended with 1.5× sample buffer and boiled; the resolved proteins were analyzed by Western blotting with the indicated Abs.
CoIP: Cell extracts were produced and incubated for 2 hr (4° C., with rotation) with A/G-agarose beads pre-linked with specific Abs (1 hr, 23° C.). The bound A/G beads were washed, resuspended (1.5× sample buffer), boiled and subjected to Western blotting.

In a further assay the test system is JNK1/2 and p38α/β. The assay is described as follows: Immunofluorescence of stimulated nuclear translocation of JNK1/2 and p38α/β in HeLa cells. The following applies: for stimuli-dependent nuclear translocation of JNK1/2 and p38α/β: HeLa cells, peptide 10 μM applied prior to stimulation, Anisomycin 0.5 μg/ml. Format: cell-based. How it is done: FIGS. 2A-2C illustrate that Imp3, 7 and 9 are required for JNK and p38 translocation and induced transcription. (A) Si RNAs of Imp3, 7, 9, but not Imp5, inhibit the stimulated JNK and p38 nuclear translocation. HeLa cells were grown on cover slides to 30% confluence. si RNAs of the indicated Imps and si Control supplied by the company (si Scr, negative control) were then transfected to the cells using Dharmafect according to the manufacturer's instructions. Forty eight hrs after transfection, the cells were serum starved, then either stimulated with Anisomycin (0.5 μg/ml, 15 min), or left untreated (NT) as indicated. The cells were then fixed, stained using the indicated (left) anti MAPK Abs and visualized using a fluorescent microscope. (B) Quantification of JNKs/p38s nuclear localization prior and upon stimulation. Data shown represents mean±S.E. The significance of Imp3 vs. Imp7/Imp9 (*) was p<0.0003. The significance of stimulated Imp3/7/9 vs Scr was p<0.00001 (C) Si RNA of Imp3, 7, 9 inhibit the activation of downstream transcription factor targets of JNKs/p38s. HeLa cells were transfected with si RNAs of the indicated Imps and si control supplied by the manufacturer (si Scr, negative control) using Dharmafect according to the manufacturer instructions. Forty eight hrs after transfection, the cells were serum starved, and then stimulated with Anisomycin (Anis 0.5 μg/ml) for the indicated times or left untreated (NT). Cell extracts were subjected to a Western blot analysis with anti pJUN, pMEF2A, pATF2, indicated Imps, and tubulin Abs.
as §1, with “indicated. […]” for “indicated.”
FIGS. 19A-19C illustrate that myristoylated peptides inhibit the stimulation dependent nuclear translocation of p38. […] The nuclei were detected using DAPI and slides were visualized using a spinning disc confocal microscope (Zeiss, ×100 magnification). […]

Another assay concerns DSS-induced Colitis. The assay is described as follows: DSS-induced colitis model. The following applies: male C57BL mice, 15 mg/Kilo I.V every 48 hours, DSS 1.25% in drinking water, 7 days, compared with control peptide. The assay is classed as in vivo. How it is done:
FIGS. 17A-17C illustrate the use of inhibitory peptide as a potential therapeutic agent in colitis model. 21 male C57BL mice treated (I.V every 48 hours) with either peptide (15 mg/Kilo), scramble peptide (15 mg/Kilo) or DMSO (2%). Colitis was induced using DSS (1.25% in drinking water) and mice were sacrificed 7 days post induction. (A-C). Colitis was evaluated using endoscopic imaging and scored for the number of lesions in the colon and weight of mice.
In vivo experiment: 21 male C57BL mice were weighed then injected (I.V) with either peptide (15 mg/Kilo), scramble peptide (15 mg/Kilo) or DMSO (2%). Twenty-four hours post injection drinking water of the mice was replaced with water containing DSS (1.25%), peptide, scramble peptide or DMSO were injected every forty-eight hours. Mice were sacrificed seven days post replacement of drinking water, and colitis was assessed using endoscopy and weight of mice.

Where [2] appears, read: listed as 14 amino acid myristoylated peptide.

Ends that are not written are not given here. * marks the point of attachment. Myristoyl = CCCCCCCCCCCCCC(=O)*

T1 sequence (O95373 whole entry): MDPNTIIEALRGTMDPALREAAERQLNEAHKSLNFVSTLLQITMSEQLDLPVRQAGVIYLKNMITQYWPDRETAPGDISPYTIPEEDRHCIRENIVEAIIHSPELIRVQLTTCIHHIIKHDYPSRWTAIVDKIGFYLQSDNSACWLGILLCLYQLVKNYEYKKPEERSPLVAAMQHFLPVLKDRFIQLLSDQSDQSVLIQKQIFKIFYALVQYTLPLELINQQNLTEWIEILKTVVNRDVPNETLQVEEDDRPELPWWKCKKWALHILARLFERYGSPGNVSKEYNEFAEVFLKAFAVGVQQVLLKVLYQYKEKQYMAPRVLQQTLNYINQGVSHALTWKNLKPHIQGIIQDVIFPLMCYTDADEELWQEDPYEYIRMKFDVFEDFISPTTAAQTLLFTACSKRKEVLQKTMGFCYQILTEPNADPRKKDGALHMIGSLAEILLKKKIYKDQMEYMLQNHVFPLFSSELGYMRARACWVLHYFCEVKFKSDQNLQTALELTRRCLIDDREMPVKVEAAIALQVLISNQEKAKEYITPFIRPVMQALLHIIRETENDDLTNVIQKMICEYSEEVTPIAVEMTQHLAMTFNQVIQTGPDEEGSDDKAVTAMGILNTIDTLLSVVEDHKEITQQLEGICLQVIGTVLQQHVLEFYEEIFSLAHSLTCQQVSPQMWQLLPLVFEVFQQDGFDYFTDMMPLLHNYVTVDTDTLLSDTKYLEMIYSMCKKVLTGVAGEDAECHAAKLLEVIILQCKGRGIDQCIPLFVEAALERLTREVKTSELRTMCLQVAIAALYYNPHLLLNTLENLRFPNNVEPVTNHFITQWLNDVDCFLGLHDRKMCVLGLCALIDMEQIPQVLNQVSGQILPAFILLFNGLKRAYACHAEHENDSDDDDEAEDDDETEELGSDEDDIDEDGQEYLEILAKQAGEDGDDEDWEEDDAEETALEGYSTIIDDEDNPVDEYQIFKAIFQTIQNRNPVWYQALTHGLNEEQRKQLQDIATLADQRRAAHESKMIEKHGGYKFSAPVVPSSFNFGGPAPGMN

In the case of “Myr-KPERYQNLSPVAAAA (Myristoyl-KPERYQNLSPVAAAA) [myristoylated peptide modified by replacement of 3 residues to alanin]”, the “stimulation-dependent activation (kinase activity) of MAPKs” value in the assay on MAPKs is “without affecting”. Further, the results for the “interaction of p38 with Imp7 (CoIP)” value in assay [1] and in assay [1] (listed as newly designed peptide) were “blocks the interaction” and “inhibited”, respectively. Moreover, in the assay on JNK1/2 and p38α/β (HeLa cells pre-incubated with peptide, Anisomycin 0.5 μg/ml 15 min, spinning disc confocal microscope), the “stimulation-induced nuclear translocation of JNK and p38 MAPKs” value is “prevented”.
Turning to “Myr-KPERYQNLSPVGSGA (Myristoyl-KPERYQNLSPVGSGA)”, the “DSS-induced Colitis (average weight loss and number of lesions in the colon)” value in the assay on DSS-induced Colitis is “reduced DSS-induced Colitis”.
Take “Myr-PERYQNLSPVGSGA (Myristoyl-PERYQNLSPVGSGA) [14 amino acid myristoylated peptide based on residues 21-34 of p38α]”: the “Imp7/9 interactions of the MAPKs examined (JNK1/2 and p38α/β), Co-IP” value is “prevented” in assay [1], “prevented” in assay [1] (setting [2]) and “inhibits the interaction” in assay [1] (listed as inhibitory peptide). The “stimuli-dependent nuclear translocation of JNK1/2 and p38α/β” value in the assay on JNK1/2 and p38α/β is “prevented the nuclear translocation”; in the assay with JNK1/2 and p38α/β (setting [2]), “prevented the nuclear translocation”; in the assay with JNK1/2 and p38α/β (listed as inhibitory peptide), “inhibits the stimuli-dependent nuclear translocation”.
